Patent publication US20240262806A1, “INHIBITORS OF NLRP3” (PTC THERAPEUTICS, INC., priority 2021, published 2024)

Tested on: NLRP3 inflammasome
Assay: IL-1β Secretion Assay (NLRP3-dependent IL-1β secretion in PMA-differentiated THP-1 cells, nigericin activation, HTRF)
Type: cell-based
Settings: Homo sapiens, THP-1, THP-1 cells, 100 ng/mL PMA 24 h, compound 20 h, 2.5 μM Nigericin 3 h; read-out: IC50 IL-1β Inhibition
Summary of the method: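 IL-1β release, quantified by HTRF after nigericin activation of the NLRP3 inflammasome, was the read-out. A logistic fit of percent inhibition gave IC50.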

SMILES	IC50 [nM]
Cc1ccc(-c2nnc(N[C@@H]3CCCN(C)C3)c3cnccc23)c(C(F)F)c1 [Compound I-299]	< 1
CCN1CCC[C@@H](Nc2nnc(-c3c(O)cc(Cl)cc3F)c3cc(C)nn23)C1 [Compound I-579]	< 1
CN1CCC[C@@H](Nc2nnc(-c3ccc(Cl)cc3C(F)(F)F)c3ccncc23)C1 [Compound I-289]	1 to 10
CN1CCC[C@@H](Nc2nnc(-c3ccc(O)cc3O)c3ccccc23)C1 [Compound I-15, (R)-4-(4-((1-methylpiperidin-3-yl)amino)phthalazin-1-yl)benzene-1,3-diol]	100 to 300
CN1CCN(CCNc2nnc(-c3ccc(C(F)(F)F)cc3O)c3ccccc23)CC1 [Compound I-161]	10 to 100
OCCN1CCC[C@@H](Nc2nnc(-c3c(O)cc(C4CC4)cc3F)c3ccncc23)C1 [Compound I-284, 5-Cyclopropyl-3-fluoro-2-[4-[[(3R)-1-(2-hydroxyethyl)-3-piperidyl]amino]-pyrido[3,4-d]pyridazin-1-yl]phenol]	< 1
CN1C[C@H](O)C[C@@H](Nc2nnc(-c3c(O)cc(C4CC4)cc3F)c3cccn23)C1 [Compound I-387, (3R,5R)-5-[[1-(4-Cyclopropyl-2-fluoro-6-hydroxy-phenyl)pyrrolo[1,2-d][1,2,4]triazin-4-yl]amino]-1-methyl-piperidin-3-ol]	10 to 100
Cc1cc(F)c(-c2nnc(N[C@@H]3CCCN(C4CCOCC4)C3)n3cccc23)c(OC(F)F)c1 [Compound I-475]	10 to 100
CCN1CCC[C@@H](Nc2nnc(-c3c(O)cc(Cl)cc3F)c3cccn23)C1 [Compound I-433]	< 1
Oc1cc(Cl)ccc1-c1nnc(N[C@@H]2CCCN(CC(F)F)C2)n2cccc12 [Compound I-368]	10 to 100
Oc1cc(C2CC2)cc(F)c1-c1nnc(N[C@@H]2CCCN(CC(F)F)C2)n2cccc12 [Compound I-510]	10 to 100
Oc1cc(Cl)cc(F)c1-c1nnc(NC2CCCOC2)n2cccc12 (stereo not drawn) [Compound I-608]	10 to 100
Oc1cc(C2CC2)ccc1-c1nnc(N[C@@H]2CCCN(C3CCOCC3)C2)n2cccc12 [Compound I-340]	1 to 10
COc1cc(O)c(-c2nnc(N[C@@H]3CCCN(C)C3)n3nc(C)cc23)c(F)c1 [Compound I-551]	< 1
CN1CCC[C@@H](Nc2nnc(-c3ccc(C(F)(F)F)cc3C3CC3)c3ccncc23)C1 [Compound I-194, (R)-1-(2-Cyclopropyl-4-(trifluoromethyl)phenyl)-N-(1-methylpiperidin-3-yl)pyrido[3,4-d]pyridazin-4-amine]	1 to 10
COc1c(C2CC2)ccc(F)c1-c1nnc(N[C@@H]2CCCN(C)C2)c2cnccc12 [Compound I-208]	10 to 100
CN1CCC[C@@H](Nc2nnc(-c3cccc(Cl)c3O)c3ccncc23)C1 [Compound I-76]	< 1
COc1cc(Br)ccc1-c1nnc(N[C@@H]2CCCN(C)C2)n2nccc12 [Compound I-451]	10 to 100
CN1CCC[C@@H](Nc2nnc(-c3ccc(Cl)cc3OC(F)F)c3c2CCC3)C1 [Compound I-241]	10 to 100
COc1cc(Br)ccc1-c1nnc(N[C@@H]2CCCNC2)n2nccc12 [Compound I-390]	100 to 300
Cn1cc(CNc2nnc(-c3ccc(C(F)(F)F)cc3O)c3ccncc23)cn1 [Compound I-174]	10 to 100
CN1CCC[C@@H](Nc2nnc(-c3ccc(Cl)cc3F)c3ccncc23)C1 [Compound I-129]	< 1
CCN1CCC[C@@H](Nc2nnc(-c3ccc(Cl)cc3C(F)F)c3cccn23)C1 [Compound I-505]	10 to 100
CN1CC[C@@H](F)[C@@H](Nc2nnc(-c3ccc(C(F)(F)F)cc3O)c3cccn23)C1 [Compound I-486, 2-(4-(((3S,4R)-4-Fluoro-1-methylpiperidin-3-yl)amino)pyrrolo[1,2-d][1,2,4]triazin-1-yl)-5-(trifluoromethyl)phenol]	10 to 100

SMILES	IC50 [nM]
CN1C[C@H](F)C[C@@H](Nc2nnc(-c3ccc(C(F)(F)F)cc3OC(F)F)c3cncn23)C1 [Compound I-625]	10 to 100
Oc1cc(C(F)(F)F)ccc1-c1nnc(N[C@@H]2CCCN(C3CCOCC3)C2)n2cccc12 [Compound I-343]	1 to 10
COc1cc(C#N)ccc1-c1nnc(N[C@@H]2CCCN(C)C2)n2cccc12 [Compound I-407]	10 to 100
Cc1ccc(-c2nnc(N[C@@H]3CCCN(C)C3)c3ncccc23)c(O)c1 [Compound I-86]	< 1
CCN1C[C@H](F)C[C@@H](Nc2nnc(-c3ccc(C(F)(F)F)cc3C(F)(F)F)c3cccn23)C1 [Compound I-535]	1 to 10
CN1CCC[C@@H](Nc2nnc(-c3ccc(Cl)cc3C(F)F)c3cccn23)C1 [Compound I-443, 1-[4-Chloro-2-(difluoromethyl)phenyl]-N-[(3R)-1-methyl-3-piperidyl]pyrrolo[1,2-d][1,2,4]triazin-4-amine]	1 to 10
Cn1cc(Nc2nnc(-c3ccc(C(F)(F)F)cc3O)c3ccncc23)cn1 [Compound I-180]	1 to 10
CCN1CCC[C@@H](Nc2nnc(-c3ccc(C(F)(F)F)cc3O)c3c2CCCC3)C1 [Compound I-19]	< 1
C[C@H](O)CNc1nnc(-c2ccc(C(F)(F)F)cc2OC(F)F)c2cccn12 [Compound I-389]	1 to 10
CN1CCC[C@@H](Nc2nnc(-c3cccc(F)c3O)c3ccccc23)C1 [Compound I-28]	10 to 100
CN1CCC[C@@H](Nc2nnc(-c3c(F)cc(Cl)cc3F)c3ccncc23)C1 [Compound I-221]	1 to 10
CN1CCC[C@@H](Nc2nnc(-c3ccc(C4CC4)cc3O)c3c(F)ccn23)C1 [Compound I-599]	1 to 10
CN1CCC[C@@H](Nc2nnc(-c3ccc(Cl)cc3O)c3cncn23)C1 [Compound I-384]	< 1
OCCN1CCC[C@@H](Nc2nnc(-c3ccc(C(F)(F)F)cc3OC(F)F)c3cnccc23)C1 [Compound I-238]	10 to 100
CN1CCC[C@@H](Nc2nnc(-c3ccc(C(F)(F)F)cc3C3=CCOC3)c3ccncc23)C1 [Compound I-145]	1 to 10
Oc1cc(C(F)(F)F)cc(F)c1-c1nnc(N[C@@H]2CCCN(C3CCOCC3)C2)n2cccc12 [Compound I-430]	1 to 10
CCN1CCC[C@@H](Nc2nnc(-c3ccc(Cl)cc3O)c3cncn23)C1 [Compound I-442]	< 1
Oc1cc(C(F)(F)F)ccc1-c1nnc(N[C@H]2C[C@](O)(C(F)(F)F)C2)n2cccc12 [Compound I-405]	100 to 300
CCN1CCC[C@@H](Nc2nnc(-c3c(C)cc(C(F)(F)F)cc3O)c3cccn23)C1 [Compound I-606]	< 1
Oc1cc(Cl)ccc1-c1nnc(N[C@@H]2CCCOC2)n2cncc12 [Compound I-518, (R)-5-Chloro-2-(4-((tetrahydro-2H-pyran-3-yl)amino)imidazo[1,5-d][1,2,4]triazin-1-yl)phenol]	1 to 10
Oc1cc(Br)ccc1-c1nnc(N[C@@H]2CCCNC2)n2cccc12 [Compound I-490, (R)-5-Bromo-2-(4-(piperidin-3-ylamino)pyrrolo[1,2-d][1,2,4]triazin-1-yl) phenol]	1 to 10
FC(F)Oc1cc(C(F)(F)F)ccc1-c1nnc(N[C@@H]2CCCOC2)n2cccc12 [Compound I-376]	1 to 10
CN1C[C@@H](F)C[C@H](Nc2nnc(-c3ccc(C(F)(F)F)cc3O)c3ccncc23)C1 [Compound I-278]	10 to 100
Cc1cc2c(N[C@@H]3CCCN(C)C3)nnc(-c3ccc(C(F)(F)F)cc3O)n2n1 [Compound I-336]	10 to 100
